This note sets out measurements from patent publication US12071453B2, “Neuroactive steroids, compositions, and uses thereof” (Sage Therapeutics, Inc., priority 2013, dated 2024).

pIC50: −log10 of the molar value.

The assay addresses [35S]-TBPS binding in rat brain cortical membranes. As to the kind of experiment: Steroid inhibition of [35S]-TBPS binding, rat brain cortical membranes. The settings on record: 3 nM [35S]-TBPS, in the presence of 5 μM GABA, read-out: 35S-TBPS Radioligand Displacement (IC50). The procedure:
TBPS binding assays using rat brain cortical membranes in the presence of 5 μM GABA has been described (Gee et al, J. Pharmacol. Exp. Ther. 1987, 241, 346-353; Hawkinson et al, Mol. Pharmacol. 1994, 46, 977-985; Lewin, A. H et al., Mol. Pharmacol. 1989, 35, 189-194).
Briefly, cortices are rapidly removed following decapitation of carbon dioxide-anesthetized Sprague-Dawley rats (200-250 g). The cortices are homogenized in 10 volumes of ice-cold 0.32 M sucrose using a glass/teflon homogenizer and centrifuged at 1500×g for 10 min at 4° C. The resultant supernatants are centrifuged at 10,000×g for 20 min at 4° C. to obtain the P2 pellets. The P2 pellets are resuspended in 200 mM NaCl/50 mM Na—K phosphate pH 7.4 buffer and centrifuged at 10,000×g for 10 min at 4° C. This washing procedure is repeated twice and the pellets are resuspended in 10 volumes of buffer. Aliquots (100 μL) of the membrane suspensions are incubated with 3 nM [^35S]-TBPS and 5 μL aliquots of test drug dissolved in dimethyl sulfoxide (DMSO) (final 0.5%) in the presence of 5 μM GABA. The incubation is brought to a final volume of 1.0 mL with buffer. Nonspecific binding is determined in the presence of 2 μM unlabeled TBPS and ranged from 15 to 25%. Following a 90 min incubation at room temp, the assays are terminated by filtration through glass fiber filters (Schleicher and Schuell No. 32) using a cell harvester (Brandel) and rinsed three times with ice-cold buffer. Filter bound radioactivity is measured by liquid scintillation spectrometry. Non-linear curve fitting of the overall data for each drug averaged for each concentration is done using Prism (GraphPad). […] The concentration of test compound producing 50% inhibition (IC50) of specific binding and the maximal extent of inhibition (Imax) are determined for the individual experiments with the same model used for the overall data and then the mean±SEM.s of the individual experiments are calculated.
Various compounds are or can be screened to determine their potential as modulators of [^35S]-TBPS binding in vitro. These assays are or can be performed in accordance with the above discussed procedures.

The term pIC50 denotes the IC50 on a negative log10 scale, so that one unit is a factor of ten. On to `COC[C@]12CC[C@@](C)(O)C[C@@H]1CC[C@H]1[C@@H]3CC[C@H](C(=O)Cn4cccn4)[C@@]3(C)CC[C@@H]12` [Compound 2], for which the pIC50 is under 6.30.

For `COC[C@]12CC[C@@](C)(O)C[C@@H]1CC[C@H]1[C@@H]3CC[C@H](C(=O)CN4CCOCC4)[C@@]3(C)CC[C@@H]12` [Compound 4], the pIC50 is under 6.30.

For the molecule `COC[C@]12CC[C@@](C)(O)C[C@@H]1CC[C@H]1[C@@H]3CC[C@H](C(=O)CN4CCN(C(C)=O)CC4)[C@@]3(C)CC[C@@H]12` [Compound 5], the negative logarithm of the IC50 (pIC50) was under 6.30.

As to `CC(=O)N1CCN(CC(=O)[C@H]2CC[C@H]3[C@@H]4CC[C@H]5C[C@](C)(O)CC[C@]5(CO)[C@H]4CC[C@]23C)CC1` [Compound 6], the pIC50 is under 6.30.

Consider `C[C@@]1(O)CC[C@@]2(CO)[C@@H](CC[C@H]3[C@@H]4CC[C@H](C(=O)CN5CCN(S(C)(=O)=O)CC5)[C@@]4(C)CC[C@@H]32)C1` [Compound 7], for which the pIC50 was under 6.30.

As to `C[C@@]1(O)CC[C@@]2(CO)[C@@H](CC[C@H]3[C@@H]4CC[C@H](C(=O)CN5CCOCC5)[C@@]4(C)CC[C@@H]32)C1` [Compound 9], the pIC50 is under 6.30.

As for `C[C@@]1(O)CC[C@@]2(CO)[C@@H](CC[C@H]3[C@@H]4CC[C@H](C(=O)Cn5nccn5)[C@@]4(C)CC[C@@H]32)C1` [Compound 10], the pIC50 is under 6.30.

Turning to `C[C@@]1(O)CC[C@@]2(CO)[C@@H](CC[C@H]3[C@@H]4CC[C@H](C(=O)Cn5cccn5)[C@@]4(C)CC[C@@H]32)C1` [Compound 11], the pIC50 was under 6.30.

In the case of `C[C@@]1(O)CC[C@@]2(CO)[C@@H](CC[C@H]3[C@@H]4CC[C@H](C(=O)Cn5ccnn5)[C@@]4(C)CC[C@@H]32)C1` [Compound 12], the pIC50 is under 6.30.

On to `COC[C@]12CC[C@@](C)(O)C[C@H]1CC[C@H]1[C@@H]3CC[C@H](C(=O)Cn4cc(C)cn4)[C@@]3(C)CC[C@@H]12` [Compound 28], for which the pIC50 was 7.00 to 7.30.

On to `COC[C@]12CC[C@@](C)(O)C[C@@H]1CC[C@H]1[C@@H]3CC[C@H](C(=O)Cn4nc5ccccc5n4)[C@@]3(C)CC[C@@H]12` [Compound 40], for which the pIC50 was 7.30 to 8.00.

For `COC[C@]12CC[C@@H](O)C[C@@H]1CC[C@H]1[C@@H]3CC[C@H](C(=O)Cn4nccn4)[C@@]3(C)CC[C@@H]12` [Compound 90], the pIC50 is 7.00 to 7.30.

On to `COC[C@]12CC[C@@H](O)C[C@@H]1CC[C@H]1[C@@H]3CC[C@H](C(=O)Cn4ccnn4)[C@@]3(C)CC[C@@H]12` [Compound 91], for which the pIC50 was 6.30 to 7.00.

For `CCOC(=O)c1ccn(CC(=O)[C@H]2CC[C@H]3[C@@H]4CC[C@H]5C[C@H](O)CC[C@]5(COC)[C@H]4CC[C@]23C)n1` [Compound 92], the pIC50 is 7.30 to 8.00.

For `COC[C@]12CC[C@@H](O)C[C@@H]1CC[C@H]1[C@@H]3CC[C@H](C(=O)Cn4cc(C)cn4)[C@@]3(C)CC[C@@H]12` [Compound 93], the pIC50 is 6.30 to 7.00.

Turning to `COC[C@]12CC[C@@](C)(O)C[C@@H]1CC[C@H]1[C@@H]3CC[C@H](C(=O)Cn4nnc5c(F)c(F)ccc54)[C@@]3(C)CC[C@@H]12` [Compound 114], the pIC50 was 7.30 to 8.00.

As for `COC[C@]12CC[C@@](C)(O)C[C@@H]1CC[C@H]1[C@@H]3CC[C@H](C(=O)Cn4nnc5ccc(F)c(F)c54)[C@@]3(C)CC[C@@H]12` [Compound 115], the pIC50 was 7.30 to 8.00.

Turning to `COC[C@]12CC[C@@](C)(O)C[C@@H]1CC[C@H]1[C@@H]3CC[C@H](C(=O)Cn4cc(C#N)cn4)[C@@]3(C)CC[C@@H]12` [Compound 127], the pIC50 was 7.30 to 8.00.

Take `COC[C@]12CC[C@@](C)(O)C[C@@H]1CC[C@H]1[C@@H]3CC[C@H](C(=O)Cn4nc5ccc(F)c(F)c5n4)[C@@]3(C)CC[C@@H]12` [Compound 128]: the pIC50 was over 8.00.

For `COC[C@]12CC[C@@](C)(O)C[C@@H]1CC[C@H]1[C@@H]3CC[C@H](C(=O)Cn4nnc5c(F)c(Cl)ccc54)[C@@]3(C)CC[C@@H]12` [Compound 138], the pIC50 is 6.30 to 7.00.

For the molecule `COC[C@]12CC[C@@](C)(O)C[C@@H]1CC[C@H]1[C@@H]3CC[C@H](C(=O)Cn4nnc5ccc(OC(F)(F)F)cc54)[C@@]3(C)CC[C@@H]12` [Compound 144], the negative logarithm of the IC50 (pIC50) was 7.00 to 7.30.

In the case of `COC[C@]12CC[C@@](C)(O)C[C@@H]1CC[C@H]1[C@@H]3CC[C@H](C(=O)Cn4nnc5cc(OC(F)(F)F)ccc54)[C@@]3(C)CC[C@@H]12` [Compound 146], the pIC50 is 7.00 to 7.30.

Consider `COC[C@]12CC[C@@](C)(O)C[C@@H]1CC[C@H]1[C@@H]3CC[C@H](C(=O)Cn4cc5nccnc5n4)[C@@]3(C)CC[C@@H]12` [Compound 154], for which the pIC50 was under 6.30.

Regarding `COC[C@]12CC[C@@](C)(O)C[C@@H]1CC[C@H]1[C@@H]3CC[C@H](C(=O)Cn4ncc5nccnc54)[C@@]3(C)CC[C@@H]12` [Compound 155], the pIC50 was 7.00 to 7.30.

With `COC[C@]12CC[C@@](C)(O)C[C@H]1CC[C@H]1[C@@H]3CC[C@H](C(=O)Cn4nnc5c(F)cccc54)[C@@]3(C)CC[C@@H]12` [Compound 157], the negative logarithm of the IC50 (pIC50) is 7.30 to 8.00.

As to `COC[C@]12CC[C@](O)(C(F)(F)F)C[C@H]1CC[C@H]1[C@@H]3CC[C@H](C(=O)Cn4nnc5c(F)c(F)ccc54)[C@@]3(C)CC[C@@H]12` [Compound 161], the pIC50 was 6.30 to 7.00.

Turning to `COC[C@]12CC[C@](O)(C(F)(F)F)C[C@H]1CC[C@H]1[C@@H]3CC[C@H](C(=O)Cn4nc5ccc(F)c(F)c5n4)[C@@]3(C)CC[C@@H]12` [Compound 162], the negative logarithm of the IC50 (pIC50) is 6.30 to 7.00.

Turning to `CCOC[C@]12CC[C@@](C)(O)C[C@@H]1CC[C@H]1[C@@H]3CC[C@H](C(=O)Cn4cc(C#N)cn4)[C@@]3(C)CC[C@@H]12` [Compound 171], the pIC50 is 7.30 to 8.00.
